In article PMC9516332 (Frontiers in Oncology, 2022):
Read-outs that look alike come from different tables or passages of the source.

Tests used:
Assay in all cases: Kinase panel profiling at 1 µmol/L (MSA or IMAP), percentage inhibition
Format in all cases: biochemical
[1] = molecular target: panel of 255 wild-type kinases (Homo sapiens, UniProt O14578); conditions: read-out: %-inhibition at 1 µmol/L, CRIK
[2] = molecular target: panel of 255 wild-type kinases (Homo sapiens, UniProt Q15349); conditions: read-out: %-inhibition at 1 µmol/L, RSK3
[3] = molecular target: panel of 255 wild-type kinases (Homo sapiens, UniProt P43405); conditions: read-out: %-inhibition at 1 µmol/L, SYK
[4] = molecular target: T1, panel of 255 wild-type kinases (Homo sapiens, UniProt Q13043); conditions: read-out: %-inhibition, MST1
T1 sequence (Q13043 1-487): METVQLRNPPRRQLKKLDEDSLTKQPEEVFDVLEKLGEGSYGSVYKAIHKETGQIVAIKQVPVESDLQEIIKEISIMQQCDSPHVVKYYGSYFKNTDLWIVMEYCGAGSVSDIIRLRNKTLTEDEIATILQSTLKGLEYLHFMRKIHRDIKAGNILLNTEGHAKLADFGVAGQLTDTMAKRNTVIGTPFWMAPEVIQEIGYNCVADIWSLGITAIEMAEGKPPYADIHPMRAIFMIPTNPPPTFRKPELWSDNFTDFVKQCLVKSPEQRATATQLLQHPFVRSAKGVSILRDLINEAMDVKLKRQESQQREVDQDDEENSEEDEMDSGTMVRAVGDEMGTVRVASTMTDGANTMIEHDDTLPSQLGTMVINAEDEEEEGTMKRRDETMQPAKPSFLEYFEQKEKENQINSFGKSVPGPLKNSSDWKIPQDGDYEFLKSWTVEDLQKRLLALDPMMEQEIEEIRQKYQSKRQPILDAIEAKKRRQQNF

[5] = molecular target: T2, panel of 255 wild-type kinases (Homo sapiens, UniProt Q9NRM7); conditions: read-out: %-inhibition at 1 µmol/L, LATS2
T2 sequence (Q9NRM7 1-1088): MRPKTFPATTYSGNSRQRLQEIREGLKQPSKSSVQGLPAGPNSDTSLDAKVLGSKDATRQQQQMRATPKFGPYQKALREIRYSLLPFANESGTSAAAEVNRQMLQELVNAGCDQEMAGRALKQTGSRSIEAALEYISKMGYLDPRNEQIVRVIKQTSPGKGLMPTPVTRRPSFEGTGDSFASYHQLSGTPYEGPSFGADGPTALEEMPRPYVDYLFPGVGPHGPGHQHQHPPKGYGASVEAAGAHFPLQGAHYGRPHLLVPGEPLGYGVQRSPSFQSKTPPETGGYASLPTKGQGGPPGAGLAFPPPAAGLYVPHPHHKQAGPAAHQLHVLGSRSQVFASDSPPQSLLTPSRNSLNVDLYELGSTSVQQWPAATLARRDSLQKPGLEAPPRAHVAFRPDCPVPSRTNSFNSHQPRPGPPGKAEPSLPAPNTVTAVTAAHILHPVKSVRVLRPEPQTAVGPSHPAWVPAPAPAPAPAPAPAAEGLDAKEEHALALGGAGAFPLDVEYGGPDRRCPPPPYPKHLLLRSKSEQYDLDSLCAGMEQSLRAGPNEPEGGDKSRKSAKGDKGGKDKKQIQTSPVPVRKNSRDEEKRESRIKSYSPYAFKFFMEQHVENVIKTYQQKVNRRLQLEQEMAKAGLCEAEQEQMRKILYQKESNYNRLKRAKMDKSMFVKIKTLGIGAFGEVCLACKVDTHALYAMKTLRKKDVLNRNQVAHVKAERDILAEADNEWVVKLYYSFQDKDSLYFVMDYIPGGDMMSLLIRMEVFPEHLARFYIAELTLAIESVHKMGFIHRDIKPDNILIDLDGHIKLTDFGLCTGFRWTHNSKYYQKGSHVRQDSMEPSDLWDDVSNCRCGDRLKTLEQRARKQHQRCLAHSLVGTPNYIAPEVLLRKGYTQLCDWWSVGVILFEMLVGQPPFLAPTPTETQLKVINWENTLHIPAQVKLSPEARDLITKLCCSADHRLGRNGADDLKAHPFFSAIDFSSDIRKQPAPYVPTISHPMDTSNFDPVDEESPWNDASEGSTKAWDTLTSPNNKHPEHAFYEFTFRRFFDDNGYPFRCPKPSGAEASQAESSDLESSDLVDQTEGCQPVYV

[6] = molecular target: T3, panel of 255 wild-type kinases (Homo sapiens, UniProt Q9UF33); conditions: read-out: %-inhibition at 1 µmol/L, EPHA6
T3 sequence (Q9UF33 23-1036): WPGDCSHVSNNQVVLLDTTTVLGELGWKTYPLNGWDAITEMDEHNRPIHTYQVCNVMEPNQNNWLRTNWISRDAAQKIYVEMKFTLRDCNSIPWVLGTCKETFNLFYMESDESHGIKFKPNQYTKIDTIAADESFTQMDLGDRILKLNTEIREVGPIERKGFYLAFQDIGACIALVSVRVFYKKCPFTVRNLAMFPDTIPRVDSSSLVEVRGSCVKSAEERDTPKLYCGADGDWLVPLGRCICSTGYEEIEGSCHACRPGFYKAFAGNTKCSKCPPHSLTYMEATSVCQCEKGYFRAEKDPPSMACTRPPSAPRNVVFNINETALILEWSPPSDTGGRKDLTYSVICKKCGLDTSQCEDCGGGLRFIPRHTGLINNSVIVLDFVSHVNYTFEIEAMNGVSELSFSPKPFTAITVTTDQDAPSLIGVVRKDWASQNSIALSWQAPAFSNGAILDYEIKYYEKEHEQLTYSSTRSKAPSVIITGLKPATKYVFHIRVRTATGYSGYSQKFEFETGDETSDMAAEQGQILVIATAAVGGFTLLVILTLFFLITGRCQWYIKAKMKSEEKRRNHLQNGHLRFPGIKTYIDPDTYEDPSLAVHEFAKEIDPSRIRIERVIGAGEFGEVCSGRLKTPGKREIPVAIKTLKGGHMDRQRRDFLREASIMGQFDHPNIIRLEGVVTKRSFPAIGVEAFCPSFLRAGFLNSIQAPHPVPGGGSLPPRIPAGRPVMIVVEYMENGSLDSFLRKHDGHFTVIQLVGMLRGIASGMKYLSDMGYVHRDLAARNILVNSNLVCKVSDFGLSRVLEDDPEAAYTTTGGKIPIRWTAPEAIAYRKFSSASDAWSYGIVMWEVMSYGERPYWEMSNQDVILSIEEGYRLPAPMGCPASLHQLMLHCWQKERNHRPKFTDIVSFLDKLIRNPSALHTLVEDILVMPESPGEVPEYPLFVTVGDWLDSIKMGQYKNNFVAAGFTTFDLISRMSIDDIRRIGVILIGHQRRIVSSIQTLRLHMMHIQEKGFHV

[7] = kinase CRIK, 1 µmol/L single concentration
[8] = kinase RSK3, 1 µmol/L single concentration
[9] = kinase SYK, 1 µmol/L single concentration
[10] = MST1, 1 µmol/L single concentration
[11] = kinase LATS2, 1 µmol/L single concentration
[12] = kinase EPHA6, 1 µmol/L single concentration

| SMILES | inhibition at 1 µM [1, 7] [%] | inhibition at 1 µM [2, 8] [%] | inhibition at 1 µM [3, 9] [%] | inhibition at 1 µM [4, 10] [%] | inhibition at 1 µM [5, 11] [%] | inhibition at 1 µM [6, 12] [%] | inhibition at 1 µM [3] [%] | inhibition at 1 µM [1] [%] | inhibition at 1 µM [2] [%] | inhibition at 1 µM [4] [%] | inhibition at 1 µM [5] [%] | inhibition at 1 µM [6] [%] |
| --- | --- | --- | --- | --- | --- | --- | --- | --- | --- | --- | --- | --- |
| Cc1nc(NC(=O)N2CCC[C@H]2C(N)=O)sc1-c1ccnc(C(C)(C)C(F)(F)F)c1 [alpelisib] | -5.56 | -1.47 | -23 | 5 | -1 | 5.35 | – | – | – | – | – | – |
| Cn1cc(-c2cc3c(N4CCN(c5ncc([C@@](C)(N)c6ccc(F)cc6)cn5)CC4)ncnn3c2)cn1 [avapritinib] | -0.548 | 10 | – | 5.32 | 1.47 | 7 | 44 | – | – | – | – | – |
| Cn1cnc2c(F)c(Nc3ccc(Br)cc3F)c(C(=O)NOCCO)cc21 [binimetinib] | -3.44 | -5 | -19 | -6.46 | -3 | 2.34 | – | – | – | – | – | – |
| CNC(=O)c1ccc(-c2cnc3ncc(Cc4ccc5ncccc5c4)n3n2)cc1F [capmatinib] | – | – | – | – | – | – | 2.11 | -4.75 | 5 | -2 | -7 | -2 |
| COc1cc2ncnc(Nc3ccc(F)c(Cl)c3)c2cc1NC(=O)/C=C/CN1CCCCC1 [dacomitinib] | 32 | 27 | -8 | 2.73 | 11 | 98 | – | – | – | – | – | – |
| C[C@H](Nc1ncnc2nc[nH]c12)c1cc2cccc(Cl)c2c(=O)n1-c1ccccc1 [duvelisib] | -3.16 | -0.46 | -2.35 | 10 | 8 | 5.71 | – | – | – | – | – | – |
| COC(=O)N[C@@H](C)CNc1nccc(-c2cn(C(C)C)nc2-c2cc(Cl)cc(NS(C)(=O)=O)c2F)n1 [encorafenib] | 2.72 | -3.36 | -20 | 0.835 | 3.49 | 17 | – | – | – | – | – | – |
| CN1CCN(c2ccc(C(=O)Nc3n[nH]c4ccc(Cc5cc(F)cc(F)c5)cc34)c(NC3CCOCC3)c2)CC1 [entrectinib] | -9 | – | -5.27 | 92 | 18 | 44 | – | – | – | – | – | – |
| CCc1nc(C(N)=O)c(Nc2ccc(N3CCC(N4CCN(C)CC4)CC3)c(OC)c2)nc1NC1CCOCC1 [gilteritinib] | 75 | 64 | 70 | 92 | 44 | 94 | – | – | – | – | – | – |
| CCN1CCN(c2ccc(Nc3cc(N(C)C(=O)Nc4c(Cl)c(OC)cc(OC)c4Cl)ncn3)cc2)CC1 [infigratinib] | -2.56 | -0.616 | -17 | 1.11 | -3.67 | 28 | – | – | – | – | – | – |
| O=C(Nc1cnn2ccc(N3CCC[C@@H]3c3cc(F)ccc3F)nc12)N1CC[C@H](O)C1 [larotrectinib] | -4.22 | -10 | -8 | -4 | -3 | -0.585 | – | – | – | – | – | – |
| C[C@H]1Oc2cc(cnc2N)-c2c(nn(C)c2C#N)CN(C)C(=O)c2ccc(F)cc21 [lorlatinib] | -1.22 | 2.53 | 16 | 28 | 6 | 76 | – | – | – | – | – | – |
| CCN1C(=O)N(c2c(F)c(OC)cc(OC)c2F)Cc2cnc3[nH]c(CN4CCOCC4)cc3c21 [pemigatinib] | -4.34 | -7.51 | -4.26 | 6 | -3 | -3 | – | – | – | – | – | – |
| FC(F)(F)c1ccc(CNc2ccc(Cc3c[nH]c4ncc(Cl)cc34)cn2)cn1 [pexidartinib] | -1.09 | 42 | -6 | 25 | 4 | 18 | – | – | – | – | – | – |
| CO[C@]1(C(=O)N[C@@H](C)c2ccc(-n3cc(F)cn3)nc2)CC[C@H](c2nc(C)cc(Nc3cc(C)[nH]n3)n2)CC1 [pralsetinib] | -0.417 | 64 | 85 | 19 | 7.44 | 87 | – | – | – | – | – | – |
| CCn1c(=O)c(-c2cc(NC(=O)Nc3ccccc3)c(F)cc2Br)cc2cnc(NC)cc21 [ripretinib] | 20 | 12 | -8 | 3 | -0.411 | 99 | – | – | – | – | – | – |
| COc1ccc(CN2C3CC2CN(c2ccc(-c4cc(OCC(C)(C)O)cn5ncc(C#N)c45)cn2)C3)cn1 [selpercatinib] | -4.75 | 56 | 7.5 | -2.33 | -5.4 | 98 | – | – | – | – | – | – |
| Cn1cnc2c(F)c(Nc3ccc(Br)cc3Cl)c(C(=O)NOCCO)cc21 [selumetinib] | -2.33 | 4.41 | -12 | -2.38 | -3.38 | 1 | – | – | – | – | – | – |
